Data on 2 compounds can be found in patent US10173999B2, “Cyclic amine derivative and pharmaceutical use thereof” (Toray Industries, Inc., priority 2015, dated 2019).

Structures can show the parent of a compound that is named as a salt.

A short description of data set [1]: Stability test in dog liver microsomes. In kind it is in vitro ADME. The note with it: pH 7.4; dog liver microsomes 0.5 mg/mL, test compound 2 μmol/L, 37° C., 0-30 min; read-out: Hepatic intrinsic clearance, Dog. As for the experimental part:
Experiment was performed using the compound of Example 11, Comparative Example 1 or Comparative Example 6 as a test compound and human liver microsomes (from Xenotech), monkey liver microsomes (from Xenotech), dog liver microsomes (from Xenotech) or mouse liver microsomes (from Xenotech) as the liver microsomes.
The reagents to be used in the stability test in liver microsomes were prepared as follows. A D-glucose 6-phosphate disodium salt (hereinafter referred to as G6P) was dissolved with distilled water to prepare an aqueous solution of G6P (100 mmol/L). Glucose 6-phosphate dehydrogenase (1000 units) from Yeast (hereinafter referred to as G6PDH) was dissolved with distilled water (5 mL) to prepare an aqueous solution of G6PDH (200 units/mL). MgCl2 was dissolved with distilled water to prepare an aqueous solution of MgCl2 (100 mmol/L). […]
With respect to the chromatogram of each well obtained by LC/MS analysis or LC/MS/MS analysis, the test compound residual ratio (%) at each reaction time t (min) was calculated based on the peak area at the reaction time of 0 minute as 100%. […]
A general note: Liver microsomes are a subcellular fraction often used to study metabolism.

Data set [2] in a line: Pharmacokinetics (PK) test in cynomolgus monkeys. In kind it is in vivo, cynomolgus monkey. As for the experimental part: Cynomolgus monkeys (4 to 6 years old, male) were raised under the conditions of voluntary intake of solid food (Oriental Yeast Co., Ltd) and tap water and fasted from the evening of the day before initiation of administration and subjected to an experiment. Note that blood was sampled at 4 hours after administration (on and after 16:00), and thereafter feeding was restarted.
Dosing solution for intravenous administration was injected through the saphenous vein by use of a syringe needle (attached to a syringe barrel). The oral administration into the stomach was compulsively carried out by inserting a catheter into the nasal cavity.
The blood sampled was centrifuged at 4° C. and 1800×g for 15 minutes to obtain the plasma. The plasma thus obtained was stored at about −80° C. until use in preparation of analysis samples. The plasma obtained from a cynomolgus monkey to which a test compound was administrated, is referred to as a plasma sample; whereas the plasma obtained from a cynomolgus monkey to which a test compound was not administered, is referred to as the blank plasma.
The resulting solution was vortexed and cooled at 4° C. for 10 minutes. A sample for a calibration curve was prepared by adding a standard solution for a calibration curve to the blank plasma and subjecting the resulting mixture to the same treatment. After cooling, each of the samples was spun at 4° C. and 2000 rpm for 10 minutes by a centrifuge (Hitachi Koki Co., Ltd.). The resulting supernatant was used as a sample for LC/MS/MS analysis.
The resulting solution was vortexed and cooled at 4° C. for 10 minutes. A sample for a calibration curve was prepared by adding a standard solution for a calibration curve to the blank plasma and subjecting the resulting mixture to the same treatment. After cooling, each of the samples was spun at 4° C. and 2000 rpm for 10 minutes by a centrifuge (Hitachi Koki Co., Ltd.). The resulting supernatant was diluted 10 fold with 70 vol % acetonitrile containing 0.1 vol % formic acid and subjected as a sample for LC/MS/MS analysis. The LC/MS/MS analysis conditions were as follows:
The test-compound concentrations in the plasma at each sampling time point in the case of intravenous administration or oral administration were calculated and PK analysis was carried out for individual monkeys. PK parameters were calculated by using WinNonlin (Pharsight), in accordance with an analysis independent of a model (intravenous administration: Bolus IV Administration, oral administration: Extravascular Administration; Weight=1/y in both administrations). Furthermore, bioavailability (BA) was calculated based on the following Expression (3) by dividing AUC0-∞iv (time 0 to ∞) at the time of the intravenous administration and AUC0-∞po (time 0 to ∞) at the time of the oral administration by respective dose values to obtained as normalized values. Bioavailability (BA)=(AUC0-∞,po/dose)/(AUC0-∞,iv/dose) (3)

For `CC(C)n1ccnc1CCC(=O)N1CCC(N(C)C)CC1` [Comparative Example 6, 1-(4-(dimethylamino)piperidin-1-yl)-3-(1-isopropyl-1H-imidazol-2-yl)propan-1-one hydrochloride], the microsomal CLint at 2 μmol/L in data set [1] was determined as 6 µL/min/mg.

Turning to `CN(C)C1CCN(C(=O)C[C@H](O)c2nccn2C)CC1` [Example 11, (S)-1-(4-(dimethylamino)piperidin-1-yl)-3-hydroxy-3-(1-methyl-1H-imidazol-2-yl)propan-1-one], in data set [2] (cynomolgus monkeys, intravenous and oral 1 mg/kg, all time points), the “mean plasma concentration after administration compared with Comparative Example 2” value is reported as “higher”. Moreover, the bioavailability in data set [2] (male, plasma, cynomolgus monkey, 1 mg/kg oral vs 1 mg/kg intravenous, read-out: BA (bioavailability)) was found to be 52.6%. In data set [2] (male, plasma, cynomolgus monkey, intravenous administration 1 mg/kg, single, read-out: CLtot (total body clearance) (converted)), the clearance was 3.25 mL/min/kg. In data set [2] (male, plasma, cynomolgus monkey, oral administration 1 mg/kg, single), this compound returned an AUC(0-inf) of 2730 ng·h/mL. The Cmax in data set [2] (male, plasma, cynomolgus monkey, oral administration 1 mg/kg, single, read-out: Cmax (maximum plasma concentration)) was found to be 279 ng/mL. Moreover, the half-life in data set [2] (male, plasma, cynomolgus monkey, oral administration 1 mg/kg, single, read-out: t1/2 (elimination half-life in the plasma) (converted)) is 7.55 h.

In general, bioavailability refers to dose-corrected exposure relative to a reference, in per cent. What is called clearance is the volume of plasma or blood freed of the substance per unit of time. As a reminder, the AUC(0-inf) is total exposure, with the tail of the curve extrapolated. The low end stands for less exposure, the high end for more exposure.
